Laboratory results reported in patent US20250009743A1, “METHODS OF TREATING CANCERS USING STING AGONISTS” (Dana-Farber Cancer Institute, Inc., priority 2021, published 2025).
“Also recorded” adds a separate entry of the source.

How the values were obtained:
human BMDMs = assay: Polarization of human BMDMs cultured in CM from ovarian PDXs; format: cell-based; conditions: STAT3 inhibitor-treated PDXs; FIG. 25D
Experimental: For ex vivo culture of human macrophages, human BMDMs were generated from bone marrow mononuclear cells (BMMs) (CAT #70001) obtained from […] Technologies. Briefly, BMMs were cultured in DMEM containing 10% FBS, 55 μM 2-Mercaptoethanol (CAT #21985023, Thermo Fisher) and 50 ng/ml M-CSF for 5-7 days with media replacement every 3 days to obtain matured macrophages (BMDMs). […] Flow cytometry analysis was preformed to analyze the phenotypes of macrophages for both mouse and human BMDMs.

THP-1 macrophages = assay: Marker expression in MDA-MB-436 tumor cell-educated THP-1 macrophages; format: cell-based, human; conditions: ADU-S100 10 μM, two days; FIG. 7G
Experimental: Cells were cultured in a humidified incubator under 5% CO2 at 37° C. MDA-MB-436, HCC1937 and THP-1 human cell lines were obtained from ATCC, tested negative for mycoplasma, and authenticated using short tandem repeat analysis (Promega GenePrint 10 System). MDA-MB-436 and HCC1937 breast cancer cells were cultured in RPMI 1640 medium (Gibco) supplemented with 10% heat-inactivated fetal bovine serum (FBS, Gemini) and 100 μg/mL penicillin-streptomycin (Gibco). THP-1 monocytes were cultured in RPMI 1640 with 10% FBS and 0.055 mM 2-mercaptoethanol (Gibco, #21985023). To differentiate THP-1 monocytes to macrophages, cells were treated with 100 nM PMA (Sigma, #P1585) for 48 h, followed by 24 h recovery with PMA-free medium.
For flow cytometry analyses of tumor and TDLN samples, single-cell suspensions were obtained as described above (Tissue Digestion). Cells were stained in cold FACS buffer (PBS containing 0.2% BSA and 5 mM EDTA) with LIVE/DEAD Fixable Aqua Dead Cell Stain (Thermo Fisher) for 30 min on ice, followed by blocking with anti-CD16/32 (BioLegend) for 20 min on ice. […] All data were analyzed using FlowJo software. […]

[1] = system: BMDMs generated from FVB/NJ mice; assay: Polarization of mouse BMDMs cultured in PBM / PBM-R conditioned medium; format: cell-based; conditions: BMDMs in 50% PBM-R-CM; ADU-S100 10 μM or MSA-2 5 ug/ml, two days; FIG. 21B
Experimental: For ex vivo culture of mouse macrophages, bone marrow cells were isolated from FVB/NJ mice and cultured in DMEM containing 10% FBS, 55 μM 2-Mercaptoethanol and 20 ng/ml M-CSF. BMDMs (bone marrow derived macrophages) were harvested on day 7 and further cultured in 2.0 ml control medium (90% DMEM, 10% FBS, 55 μM 2-Mercaptoethanol and 5 ng/ml M-CSF) described above or the medium containing 50% tumor cell conditioned medium for 72 hrs before analysis. For the tumor cell conditioned medium, about 3×10^5 tumor cells were cultured in 6-well plate for 24 hrs and then treated with DMSO or olaparib. After 24 hrs incubation with DMSO or olaparib, the tumor cells were washed twice with PBS and cultured in DMEM containing 10% FBS for 48 hrs. The tumor cell conditioned medium was collected by centrifugation at 1,500 g for 5 min at 4° C. to remove all the debris and cells. For the cytokine blocking experiment, monoclonal antibodies that specific to each cytokine were added to the tumor cell conditioned medium before it was applied to culture macrophages.

PE tumor cells = assay: CXCL10 and CCL5 expression in PE tumor cells (RT-PCR); format: cell-based, mouse; conditions: FIG. 27C
Experimental: (§1) Cultured cells were lysed in 1 mL TRIZOL® reagent supplied with 200 μL chloroform, after which, samples were vortexed vigorously for 15s and incubated at room temperature for 2 to 3 minutes. The samples were then centrifuged at 12000 g for 15 minutes at 4° C., and collected aqueous phase only. […] Relative mRNA levels were calculated using the […]. Mouse Actb and human GAPDH were used as endogenous controls for mouse and human samples, respectively.

[2] = system: EFGR/ERK signaling pathway
PE tumors [3] = assay: PE (exon19del/T790M EGFR, Trp53 loss) tumor growth in FVB mice; format: in vivo, mouse; conditions: mouse, in vivo
PE tumors [4] = assay: Flow cytometry of immune cells in PE tumors and tumor-drainage lymph nodes; format: in vivo, mouse
Experimental: To obtain single-cell suspension from tumor mass, tumors were excised, minced and dissociated in collagenase buffer (DMEM supplemented with 5% FBS, 10 mM HEPES [Gibco), 100 μg/mL penicillin-streptomycin, 20 μg/mL DNase I [StemCell] and 1× collagenase/hyaluronidase [StemCell]) at 37° C. for 45 min. Tumor-draining lymph nodes were isolated from tumor-bearing mice and were mashed through 70 μm strainer using plunger of a syringe to obtain single-cell suspension.
For FACS staining, tissue cells were first stained with LIVE/DEAD Fixable Aqua Dead Cell Stain (Thermo Fisher) for 30 min on ice, followed by blocking with anti-CD16/32 (BioLegend) for 20 minutes on ice. Afterwards, cells were incubated with antibodies targeting surface biomarkers in FACS buffer for 30 minutes on ice.

PC9GR4 = assay: CXCL10 and CCL5 expression in PC9GR4 cells (RT-PCR); format: cell-based, human; conditions: FIG. 27C
Experimental: as §1

Structure (SMILES): CC(=O)c1cc2c(o1)C(=O)c1ccccc1C2=O [napabucasion]
- M2-like macrophage polarization induced by CM from DF86 and DF118 (human BMDMs): partially diminished

Structure (SMILES): Nc1ncnc2c1ncn2[C@@H]1O[C@@H]2COP(=O)([S-])O[C@@H]3[C@H](O)[C@@H](COP([O-])(=S)O[C@H]2[C@H]1O)O[C@H]3n1cnc2c(N)ncnc21.[Na+].[Na+] (some centres unmarked) [ADU-S100]
- CD86 expression (THP-1 macrophages): significantly increased
- CD163 expression (THP-1 macrophages): suppressed
- M1/M2 ratio [1]: significantly increased

Structure (SMILES): C=CC(=O)Nc1cc(Nc2nccc(-c3cn(C)c4ccccc34)n2)c(OC)cc1N(C)CCN(C)C [osimertinib]
- expression of CXCL10 and CCL5 (PE tumor cells): significantly elevated
- activation of EFGR/ERK signaling pathway (phosphorylation of EGFR and ERK) [2]: inhibited
- PE tumor growth (PE tumors [3]): significantly slowed PE tumor growth; also recorded: tumor regression; also recorded: only modest therapeutic effects
- growth of large PE tumors (PE tumors [3]): progressed through osimertinib treatment and presented growth rates comparable to control
- therapeutic effect under CD8^+ T cell depletion (PE tumors [3]): significantly mitigated
- T cells or IFNg^+/TNFa^+ T cells in large PE tumors (PE tumors [4]; large tumors): did not lead to increase
- tumor immune microenvironment of large PE tumors (PE tumors [4]; single-agent treatment, FIG. 30B): did not significantly affect
- CD8^+ and CD4^+ T cells in tumor (PE tumors [4]; small tumors, FIG. 27B): induced the recruitment of CD8^+ and CD4^+ T cells
- IFNg-positive CD8^+ and CD4^+ T cells (PE tumors [4]; small tumors, FIG. 27B): increase
- expression of CXCL10 and CCL5 (PC9GR4): significantly elevated
